Assay [1] has as its target T1, Bifunctional epoxide hydrolase 2 (Homo sapiens, UniProt P34913).
T1 sequence (P34913 whole entry): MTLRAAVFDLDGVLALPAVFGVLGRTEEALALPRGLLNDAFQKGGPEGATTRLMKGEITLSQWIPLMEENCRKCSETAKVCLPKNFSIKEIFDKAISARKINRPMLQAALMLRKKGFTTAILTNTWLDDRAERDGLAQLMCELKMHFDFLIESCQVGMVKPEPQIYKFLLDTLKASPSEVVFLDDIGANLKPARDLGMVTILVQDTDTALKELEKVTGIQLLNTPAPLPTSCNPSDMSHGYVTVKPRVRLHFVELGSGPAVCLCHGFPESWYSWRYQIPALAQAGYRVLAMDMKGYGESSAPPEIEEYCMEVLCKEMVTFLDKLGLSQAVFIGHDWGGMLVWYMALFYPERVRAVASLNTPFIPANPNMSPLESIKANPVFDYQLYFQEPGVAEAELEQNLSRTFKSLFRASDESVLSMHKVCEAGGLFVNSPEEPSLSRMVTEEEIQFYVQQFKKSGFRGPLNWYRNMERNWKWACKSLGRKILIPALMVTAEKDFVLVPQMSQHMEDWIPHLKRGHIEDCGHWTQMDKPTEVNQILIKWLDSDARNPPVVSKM
As to the kind of experiment: Inhibition of human recombinant soluble epoxide hydrolase using (cyano(6-methoxy-naphthelen-2-yl)methyl trans-[(3-phenyl-oxiran-2-yl)methyl] carbonate) as substrate preincubated for 5 mins prior to substrate addition by fluorescence assay.

Assay [2] addresses T1, Bifunctional epoxide hydrolase 2. As to the kind of experiment: Competitive inhibition of human recombinant soluble epoxide hydrolase using [3H]-tDPPO as substrate.

Regarding `O=C(Cc1ccccc1)Nc1ccccc1`, the IC50 – broadly, the point on the concentration scale where inhibition reaches its midpoint – in assay [1] amounted to 11000 nM.

Turning to `CCCCCCCCSCCCCCCCC` [DIOCTYLSULFANE], the IC50 in assay [1] was > 100000 nM. For `CCCCCCCCS(=O)(=O)CCCCCCCC`, the IC50 in assay [1] was > 100000 nM. For `O=c1c2ccccc2[se]n1-c1ccccc1` [EBSELEN], in assay [1], the IC50 was determined as 2200 nM. Turning to `C[C@]12CC[C@@H]3c4ccc(O)cc4C[C@@H](CCCCCCCCC[S+]([O-])CCCC(F)(F)C(F)(F)F)[C@H]3[C@@H]1CC[C@@H]2O` (stereo partly specified) [FULVESTRANT], the Ki (as a rule, the equilibrium dissociation constant of an inhibitor or competing ligand from its target) in assay [2] is 26 nM. The IC50 in assay [1] stood at 6 nM. As to `O=C(Nc1ccccc1)Nc1ccccc1`, the 50% inhibitory concentration (IC50) in assay [1] is 400 nM.

Consider `CCCCCCCC[S+]([O-])CCCCCCCC`, for which the IC50 in assay [1] amounted to 1350 nM. Turning to `CCCCCCCC[S+]([O-])Cc1ccccc1` (stereo unspecified), in assay [1], the IC50 was 6800 nM.

In the case of `[O-][S+](Cc1ccccc1)Cc1ccccc1`, in assay [1], the IC50 was determined as 70000 nM. On to `CCCCCCCCC(=O)CCCCCCCC`, for which the IC50 in assay [1] is > 100000 nM.

The record behind these values is ChEMBL document CHEMBL2396615 (Bioorg Med Chem Lett, 2013).
